{
  "source": "patent US20090105172A1",
  "about": "“Stabilized Aptamers to PSMA and Their Use as Prostate Cancer Therapeutics” (priority 2005, published 2009)",
  "key": {"[1]": {"test_system": "LNCaP cells", "test": "Cell proliferation assay (BrdU ELISA), targeted killing", "assay_type": "cell-based", "conditions": "for effect on LNCaP cell viability: entire concentration range", "experimental": "Effects on LNCaP cell viability were assessed in a cell proliferation assay based on chemiluminescent detection of BrdU described below (Cell Proliferation ELISA, BrdU (Roche, Indianapolis, Ind.). PC-3 cells were used as a control cell line.\nMedia from LNCaP (PSMA+) or PC3 (PSMA−) cells growing in 15 cm plates was aspirated off then cells were washed with 10 mL 1×PBS. Cells were trypsinized for 30 sec at 37° C. Following trypsinization, 8 mL 10% FBS media was used to quench trypsin. […] Following spin the media was aspirated off and the cell pellet was re-suspended with 10 mL complete media. The cell density was adjusted to 200,000 cells/mL. 50 μl of cells/well was added to collagen coated black 96-well plates (10,000 cells/well). […] Following overnight incubation 25 μl of media, aptamer or antibody was added to each well with the final volume in the well being 100 μl and incubated at 37° C. in 5% CO2 for designated time length. […] After 2 days 20 μl BrdU labeling reagent (100×) is mixed with 2 mL of complete media. […] After incubation, the media was removed, and the assay was completed following the manufacturer's protocol: 200 μl/well FixDenat solution was added to each well and incubated for 30 min at RT. Following removal of FixDenat solution 100 μl anti-BrdU POD Fab fragment solution (Luminol/4-iodophenol) was added to each well and incubated for 90 min at RT. After incubation anti-BrdU POD solution was removed and plates were washed with 200 μl/well of washing solution three times with 5 min RT incubations. 100 μl of substrate solution was added to each well and cells were incubated for 3 min at RT in the dark. The plates were read using a luminescence program with a 1 sec count on a Packard TopCount Microplate Scintillation and Luminescence Counter."}, "[2]": {"test_system": "LNCaP cells (PSMA+)", "test": "LNCaP FACS binding assay with fluorescein-labeled aptamers", "assay_type": "cell-based", "conditions": "FACS analysis; scrambled A9 negative control", "procedure": "To prepare aptamers for the FACS assay, PSMA aptamers were serially diluted (0-1 uM) in FACS buffer (1×DPBS w/Ca^++/Mg^++ (Gibco, Carlsbad, Calif.) supplemented with 10 mg/mL salmon sperm DNA & 0.2% Na Azide), in a V-bottom 96 well plate, at the concentrations to be tested. LNCaP and PC-3 cells (ATCC, Manassas, Va.) were harvested with trypsin, and 200,000 cells/well were counted, washed once with 1×DPBS (with Ca^++ and Mg^+) and resuspended in 200 μl of FACS Buffer. The 200 μl of cells in FACS buffer were added to individual wells of a new 96 well plate, pelleted by centrifugation (1300 rpm for 5 minutes), and resuspended in 100 μl of the appropriate concentration of diluted aptamer. FACS buffer, a-PSMA antibody (3C6) (Northwest Biotherapeutics, Bothell, Wash., Cat #: 60-5002) and an irrelevant fluorescein isothiocyanate (“FITC”) mouse IgG1 isotype control antibody (BD Pharmingen, San Diego, Calif., Cat#: 554679) were used as controls. The wells of aptamer/cell mixture were incubated at room temperature for 20-30 minutes.\nAfter incubation, 180 μl of FACS buffer (plus 10 mg/mL ssDNA, and 0.2% Na Azide) was added to each well to quench the reaction and cells were pelleted by centrifugation.\nAnti-fluorescein/Oregon Green®, rabbit IgG fraction, Alexa Fluor® 488 conjugate (Molecular Probes, Eugene, Oreg., Cat#: A11090) was diluted 1:100 in FACS buffer (100 μl/well) as the secondary antibody for the aptamer-FITC conjugates and FITC-mouse IgG isotype control. FITC Rat anti-mouse IgG1 (A85-1) (BD Pharmingen, San Diego, Calif., Cat#: 553443) was diluted in 1:100 in FACS Buffer as the secondary for the α-PSMA antibody. After centrifugation, the cell pellets were resuspended in 100 μl of the appropriate diluted secondary antibody, and incubated 10 minutes at room temperature. After incubation, 180 μl of FACS buffer was added to each well to quench the reaction, and cells were pelleted by centrifugation.\nA tertiary antibody which recognizes the Alexa Fluor® 488 goat anti-rabbit IgG was prepared to further amplify the Alexa Fluor signal. Alexa Fluor® 488 goat anti-rabbit IgG (H+ L) (Molecular Probes, Eugene, Oreg., Cat#: A11034) was diluted 1:100 in FACS buffer, and the pelleted cells were resupsended in 100 μl of the tertiary antibody and incubated for 10 minutes at room temperature. […]\nCell samples were analyzed on a FACS Scan machine (Becton Dickinson, San Jose, Calif.) under the following parameters: FSC/SSC, FL-1/FSC, FL-3/FSC. The unstained and/or isotype controls were used to establish gating parameters, and the data was analyzed using Cell Quest Pro software version 5.1.1 (Becton Dickinson Immunocytometry Systems, San Jose, Calif.)."}, "[3]": {"target": "T1, ECD PSMA (Homo sapiens, UniProt Q04609)", "T1 construct": "vector-derived N-terminal linker […]; made in house; host or cells: 293 Freestyle cells, pSecTag2B vector", "T1 sequence (Q04609 with tags, fused parts or gaps)": "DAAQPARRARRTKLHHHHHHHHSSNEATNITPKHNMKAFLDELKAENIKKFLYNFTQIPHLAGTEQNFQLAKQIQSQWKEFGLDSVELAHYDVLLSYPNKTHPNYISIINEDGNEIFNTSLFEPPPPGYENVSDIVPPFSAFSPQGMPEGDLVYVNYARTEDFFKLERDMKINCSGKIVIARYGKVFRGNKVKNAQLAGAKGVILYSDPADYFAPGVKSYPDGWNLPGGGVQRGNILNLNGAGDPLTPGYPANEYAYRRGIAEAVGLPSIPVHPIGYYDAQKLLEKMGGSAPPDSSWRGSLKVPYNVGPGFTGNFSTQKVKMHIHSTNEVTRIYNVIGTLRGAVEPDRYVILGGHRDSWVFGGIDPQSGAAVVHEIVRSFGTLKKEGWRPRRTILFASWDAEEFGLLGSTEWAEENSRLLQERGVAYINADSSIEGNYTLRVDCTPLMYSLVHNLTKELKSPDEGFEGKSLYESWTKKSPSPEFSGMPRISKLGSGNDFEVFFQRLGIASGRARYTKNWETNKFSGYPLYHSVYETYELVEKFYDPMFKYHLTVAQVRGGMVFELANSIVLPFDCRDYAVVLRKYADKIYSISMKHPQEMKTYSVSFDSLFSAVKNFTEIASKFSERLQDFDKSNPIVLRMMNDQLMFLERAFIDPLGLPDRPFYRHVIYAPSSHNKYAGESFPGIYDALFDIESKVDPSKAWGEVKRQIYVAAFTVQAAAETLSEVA", "test": "Dot blot binding assay (nitrocellulose filter) with purified ECD PSMA", "conditions": "for Max % bound (highest % of minimer bound to target protein): dot blot", "description": "Protein Purification of ECD of PSMA: An I.M.A.G.E. clone (5202715) encoding full length recombinant human PSMA was purchased from Open Biosystems (Clone EHS1001-18533, Huntsville, Ala.). PCR was used to amplify the extracellular portion of the full length clone. An oligo with an N-terminal histidine tag was designed to engineer a construct which lacks the transmembrane domain residues 1-44. The his-tagged extracellular domain (ECD) was subcloned into the pSecTag2B expression vector (Invitrogen, Carlsbad, Calif.). The ECD of PSMA was purified in house from transfected 293 Freestyle cells (ATCC, Manassas, Va.). The amino acid sequence of the expressed protein comprising an N-terminal linker sequence of […] followed by eight Histidines is listed below: […] VSDr[…]a[…]r[…]rYV […] (SEQ ID NO 5)\nDot Blot Binding Analysis. Dot blot binding assays were performed throughout the selections to monitor the protein binding affinity of the pools. For initial pool screening, trace ^32P-labeled pool RNA was combined with PSMA and incubated at room temperature for 30 min in 1×SHMCK buffer pH 7.4 (20 mM Hepes pH 7.4, 120 mM NaCl, 5 mM KCl, 1 mM MgCl2, 1 mM CaCl2) plus 0.1 mg/mL tRNA in a final volume of 30 μl. The mixture was applied to a dot blot apparatus (Schleicher and Schuell Minifold-1 Dot Blot, Acrylic, Keene, N.H.), assembled (from top to bottom) with nitrocellulose, nylon, and gel blot membranes. RNA that is bound to protein is captured on the nitrocellulose filter; whereas the non-protein bound RNA is captured on the nylon filter. […] The Round 9 pool was cloned and screened in a single point dot blot assay using 100 nM PSMA (0 nM PSMA was used as a negative control). Clone transcripts were 5′ end labeled with ^32-P ATP. Likely binders were than assayed for KD determination by the blot assay conditions described directly above, but without tRNA, using an 8 point PSMA titration with a constant RNA concentration. […] Both of the clones screened were unique sequences in the Round 9 selection pool.\nIn order to identify the core structural elements required for ARC955 binding to PSMA, the 3′-boundaries of the clone was determined through alkaline hydrolysis. The parent RNA transcript was labeled at the 5′-end with γ-^32P ATP and T4 polynucleotide kinase. Radiolabeled ligands were subjected to partial alkaline hydrolysis and then selectively bound in solution to ECD PSMA (purified in house) at 100 nM before being passed through nitrocellulose filters (Centrex MF 1.5 mL, 0.45 μm, Schleicher & Schuell, Keene N.H.). Retained oligonucleotides were resolved on 8% denaturing polyacrylamide gels. The smallest oligonucleotide bound to PSMA defined the 3′-boundary. On the basis of the boundary experiments as well as visual inspection of predicted folds, truncated constructs were synthesized. Clones were then assayed by dot blot as previously described to determine their KD. […] The binding curve for ARC1091 in the dot blot assay is depicted in FIG. 5A, and the predicted secondary structure of ARC1091 is depicted in FIG. 5B. The KD and maximum % bound for the 3 minimized constructs with the overall highest PSMA affinity, as determined by a dot blot binding assay, are listed in Table 4. For the minimized rGmH aptamers described in Table 5 below, the guanosine triphosphates are 2′-OH and the adenosines triphosphates, cytidine triphosphates and uridine triphosphates are 2′-OMe. Unless noted otherwise, the individual sequences are represented in the 5′ to 3′ orientation. In some embodiments, the invention comprises aptamers with a nucleic acid sequence as described in Table 4 below. In some embodiments, the nucleic acid sequence of an aptamer described in Table 4 below additionally comprises a 3′ cap (e.g., an inverted dT cap), and/or 5′ amine (NH2) modification to facilitate chemical coupling, and/or conjugation to a high molecular weight, non-immunogenic compound (e.g., PEG). […]"}, "[4]": {"conditions": "Round 9 PSMA rGmH clones, 8 point PSMA titration, without tRNA"}},
  "note": "Entries after “also recorded” stand apart in the source; their conditions may differ. {C6-FAM} = fluorescein label attached via 5'-amine; [invdT] = inverted (3'-3') thymidine; m = 2'-O-methyl; r = 2'-OH (RNA); f = 2'-fluoro",
  "data": [
    {"compound": "O=c1c(-c2ccc(O)cc2)coc2cc(O)cc(O)c12", "note": "[Genistein, reference compound]", "values": [
      {"measurement": "effect in cytotoxicity assays at 25 μM", "setting": "[1]; positive control, 25 μM", "result": "partial inhibition"},
      {"measurement": "effect in cytotoxicity assays at 150 μM", "setting": "[1]; positive control, 150 μM", "result": "complete cell killing"}
    ]},
    {"compound": "C6 FAM-GGAGGACCGAAAAAGACCUGACUUCUAUACUAAGUCUACGUUCCUCC-3T (2'-fluoro at CU, RNA at AG, [invdT] at 3' end, 5' {C6-FAM}, backbone not given here) [ARC710, fluorescently labeled A9 minimer]", "values": [
      {"measurement": "competition with fluorescently labeled anti-PSMA antibody for binding to the surface of LNCaP cells", "setting": "[2]", "result": "effectively competes"}
    ]},
    {"compound": "CUACUACACAUGGGUCGGGUGAGUGGCAAAGGAAUAGUAG (2'-O-methyl at ACU, RNA at G, backbone not given here) [ARC725, non-functional rGmH minimer, irrelevant control]", "values": [
      {"measurement": "PSMA binding", "setting": "[3]", "result": "no intrinsic PSMA binding; also recorded: not to exhibit PSMA binding"},
      {"measurement": "KD (nM)", "setting": "[3]; rGmH minimers", "result": "no binding"},
      {"measurement": "Max % bound (highest % of minimer bound to target protein)", "setting": "[3]; rGmH minimers", "result": "no binding"}
    ]},
    {"compound": "CUACUGGGUGGCUGGGAGGGGAAGAGGGAGUAG (2'-O-methyl at ACU, RNA at G, backbone not given here) [ARC1089, rGmH minimer]", "values": [
      {"measurement": "Kd", "setting": "[3]; rGmH minimers", "result": 9.3, "unit": "nM"},
      {"measurement": "Max % bound (highest % of minimer bound to target protein)", "setting": "[3]; rGmH minimers", "result": 22, "unit": "%"}
    ]},
    {"compound": "GGGUGGCUGGGAGGGGAAGAGGG (2'-O-methyl at ACU, RNA at G, backbone not given here) [ARC1088, rGmH minimer]", "values": [
      {"measurement": "Kd", "setting": "[3]; rGmH minimers", "result": 2.1, "unit": "nM"},
      {"measurement": "Max % bound (highest % of minimer bound to target protein)", "setting": "[3]; rGmH minimers", "result": 33, "unit": "%"}
    ]},
    {"compound": "UAAUACGACUCACUAUAGGGAGAGGAGAGAACGUUCUACUAUGGGUGGCUGGGAGGGGAAGAGGGAGUAGGUCGAUCGAUCGAUCAUCGAUG [ARC955]", "values": [
      {"measurement": "Kd", "setting": "[3]; [4]", "result": 9, "unit": "nM"},
      {"measurement": "effect on LNCaP cell viability", "setting": "[1]", "result": "no intrinsic effect on cell viability"}
    ]},
    {"compound": "UAAUACGACUCACUAUAGGGGAGAGGAGAGAACGUUCUACACAUGGGUCGGGUGAGUGGCAAAGGAAUAGGUCGAUCGAUCGAUCAUCGAUG [ARC956]", "values": [
      {"measurement": "Kd", "setting": "[3]; [4]", "result": 16, "unit": "nM"}
    ]},
    {"compound": "c6 fam-mCmGmGmAfCfCmGAAAAmAmGmAmCfCfUGAfCfUfUfCfUAfUAfCfUAAmGmUmCmUAfCmGfUmUmCmCmG-3T (CGGACCGAAAAAGACCUGACUUCUAUACUAAGUCUACGUUCCG; sugars from the 5' end mmmmffmrrrrmmmmffrrfffffrfrffrrmmmmrfmfmmmm, [invdT] at 3' end, 5' {C6-FAM}, backbone not given here) [ARC711, fluorescently labeled A9 minimer]", "values": [
      {"measurement": "competition with fluorescently labeled anti-PSMA antibody for binding to the surface of LNCaP cells", "setting": "[2]", "result": "effectively competes"}
    ]},
    {"compound": "mAGmAGGmAGmAGmAmAmCGmUmUmCmUmAmCmUmAmUGGGmUGGmCmUGGGmAGGGG (AGAGGAGAGAACGUUCUACUAUGGGUGGCUGGGAGGGG; 2'-O-methyl at ACU, RNA at G, backbone not given here) [ARC1091, minimized ARC955 (G2) aptamer]", "values": [
      {"measurement": "PSMA binding", "setting": "[3]", "result": "maintains the full binding capacity"},
      {"measurement": "Kd", "setting": "[3]; rGmH minimers", "result": 3.1, "unit": "nM"},
      {"measurement": "Max % bound (highest % of minimer bound to target protein)", "setting": "[3]; rGmH minimers", "result": 52, "unit": "%"}
    ]},
    {"compound": "mCmGmGmAfCfCmGAAAAmAmGmAmCfCfUGAfCfUfUfCfUAfUAfCfUAAmGmUmCmUAfCmGfUmUmCmCmG-3T (CGGACCGAAAAAGACCUGACUUCUAUACUAAGUCUACGUUCCG; sugars from the 5' end mmmmffmrrrrmmmmffrrfffffrfrffrrmmmmrfmfmmmm, [invdT] at 3' end, backbone not given here) [ARC942, minimized A9 aptamer]", "values": [
      {"measurement": "effect on LNCaP cell viability", "setting": "[1]", "result": "no intrinsic effect on cell viability"}
    ]}
  ]
}
